How the values were obtained:
H460 NSCLC [1] = test: H460 ectopic tumor model, TH-302 with carboplatin; type: in vivo, nude mice; conditions: Carboplatin 20 mg/kg IV Q7Dx2; TH-302 100 mg/kg IP Q7Dx2; alone or combined
Method: (§1) Anti-tumor activity was evaluated by tumor growth inhibition (TGI) and tumor growth delay (TGD). Body weight change, gross and microscopic assessment of tissue changes, and hematologic assays served for toxicity assessment.
(§2) Testing in these models was conducted generally as follows. 1×10^6 H460 human non-small cell lung cancer or HT1080 human fibrosarcoma cells were implanted in the subcutaneous space of the right flank to obtain ectopic xenograft models. For the orthotopic pancreatic model, red-fluorescent protein (RFP) expressing MIA PaCa2 tumors were surgically implanted on the surface of the pancreas. The prostate metastatic model was created by the intraventricular injection of 3×10^6 luciferase-expressing PC-3 cells. […] API grade of TH-302 was used in all experiments while docetaxel, gemcitabine, doxorubicin and pemetrexed were purchased from commercial sources.
Inhibition of tumor growth after administration of TH-302 and carboplatin was greater than for either drug individually in an ectopic tumor model using H460 cells.

[2] = tested on: PC-3 human prostate cancer cells; test: PC-3 ectopic xenograft, TH-302/docetaxel dosing schedules; type: in vivo, nude mice; conditions: single agent, TH-302 150 mg/kg ip once or Docetaxol 10 mg/kg iv once
[3] = tested on: H460 human non-small cell lung cancer; test: H460 ectopic xenograft, TH-302/docetaxel dosing schedules; type: in vivo, nude mice; conditions: single agent, TH-302 100 mg/kg ip once or Docetaxol 10 mg/kg iv once
Method: (§3) Anti-tumor activity was evaluated by tumor growth delay (TGD) and tumor growth inhibition (TGI). Body weight change, gross and microscopic assessment of tissue changes, and hematologic assays served for toxicity assessment. Testing in these models was conducted generally as follows. 1×10^6 (H460 human non-small cell lung cancer or HT1080 human fibrosarcoma cells) or 3×10^6 (PC-3 human prostate cancer cells) were implanted in the subcutaneous space of the right flank to obtain ectopic xenograft models. Randomization and dosing was initiated when tumors reached a certain size (100-150 mm^3). API grade of TH-302 was used in all experiments while docetaxel, gemcitabine, cisplatin, pemetrexed, and doxorubicin were purchased from commercial sources.
The H460 cells were prepared in 30% Matrigel and 70%. RPMI1640. Mice were anesthetized by isoflurane and were implanted subcutaneously with 1×10^6 cells (in 200 μl) at the flank position. We selected 110 mice bearing similar size tumors (˜100 mm^3) for the study. Mice bearing similar tumor size were randomly assigned into different groups. Treatment started on day 1 (7 days after tumor implantation) except as noted. […] Animals were observed daily and tumor measurements and body weights recorded twice weekly.

Calu6 NSCLC = test: Calu-6 ectopic tumor model, TH-302 with doxorubicin; type: in vivo, nude mice; conditions: Dox 4 mg/kg IV Q7Dx2; TH-302 50 mg/kg IP QDx5/wkx2wks; alone or combined
[4] = tested on: HT1080 human fibrosarcoma cells; test: HT1080 ectopic xenograft, TH-302/doxorubicin dosing schedules; type: in vivo, nude mice; conditions: single agent, TH-302 100 mg/kg ip 1/wkx2wks or Dox 4 mg/kg iv 1/wkx2wks
Method: as §3
(§4) The H460 cells were prepared in 30% Matrigel and 70%. RPMI1640. Mice were anesthetized by isoflurane and were implanted subcutaneously with 1×10^6 cells (in 200 μl) at the flank position. We selected 110 mice bearing similar size tumors (˜100 mm^3) for the study. Mice bearing similar tumor size were randomly assigned into different groups. Treatment started on day 1 (7 days after tumor implantation) except as noted. TH-302 was administered intraperitoneally (IP) at 150 mg/kg, and docetaxel was administered intravenously (IV) at 10 mg/kg. Animals were observed daily and tumor measurements and body weights recorded twice weekly.
In a study conducted substantially as described above except the cells implanted were HT1080 human fibrosarcoma cells and 1×10^6 cells were implanted and mice were randomized into separate groups when their […]

HT29 colon cancer = test: HT-29 ectopic tumor model, TH-302 with 5FU; type: in vivo, nude mice; conditions: 5-FU 50 mg/kg IV Q3Dx4; TH-302 150 mg/kg IP Q7Dx3; alone or combined
H460 NSCLC cells = test: H460 ectopic xenograft, TH-302/pemetrexed dosing schedules; type: in vivo, nude mice; conditions: single agent, TH-302 100 mg/kg ip Q7Dx2 or PMX 150 mg/kg ip Q7Dx2
Method: as §3, §4
In a study conducted substantially as described above except the cells implanted were H460 NSCLC cells and 1×10^6 cells were implanted and mice were randomized into separate groups when their tumors reached ˜100 mm^3 and the chemotherapeutic employed was pemetrexed at a dose of 150 mg/kg given once a week (Q7D) for two weeks IP and the TH-302 was given at 100 mg/kg given once a week (Q7D) for two weeks IP. […]

H460 NSCLC [5] = test: H460 ectopic lung cancer model, TH-302 with pemetrexed; type: in vivo, nude mice; conditions: PMX 150 mg/kg 1/wkx2wks IP; TH-302 50 mg/kg 5/wkx2wks IP; alone or combined
Method: as §1, §2

[6] = single agent, Phase I study; cited from earlier work
[7] = tested on: orthotopic prostate cancer PC-3 cells; test: Orthotopic PC-3 prostate cancer model, TH-302 with Taxol; type: in vivo, mice; conditions: single agents: Taxol 12 mg/kg; TH-302 30 or 50 mg/kg
Method: TH-302 was tested as monotherapy and in combination with Taxol (paclitaxel) in animals bearing highly invasive and metastatic orthotopic prostate cancer PC-3 cells. Animals were randomized into 6 groups of 8 mice each and then treated either with vehicle; Taxol (12 mg/kg, IV, twice a week for 4 consecutive weeks); TH-302 (30 or 50 mg/kg, IP, once a day for 5 days a week for 2 consecutive weeks); or Taxol in combination with TH-302 (using the same single agent regimens).

## N.N.O=C([O-])C1(C(=O)[O-])CCC1.[Pt+2] [Carboplatin, carboplatin, reference compound]
H460 NSCLC [1]
  Days to 500 mm^3: 11.5 days
  Days to 1000 mm^3: 18.5 days
  T/C: 69.7%
  TGD500, Days (vs. vehicle): 2 days
  TGD1000, Days (vs. vehicle): 4.5 days
  TGI: 30.3%
  Tn (tumor volume on Day n): 855.6

## CC(=O)O[C@@]12CO[C@@H]1C[C@H](O)[C@@]1(C)C(=O)[C@H](O)C3=C(C)[C@@H](OC(=O)[C@H](O)[C@@H](NC(=O)OC(C)(C)C)c4ccccc4)C[C@@](O)([C@@H](OC(=O)c4ccccc4)[C@H]21)C3(C)C [Docetaxol, docetaxel, reference compound]
[2]
  Days to 500 mm^3: 26 days
  T/C: 49.1%
  TGD500, Days (vs. vehicle): 10 days
  TGI: 50.9%
[2]; in mm³
  Tn (tumor volume on Day n): 563.22
[3]
  Days to 500 mm^3: 18 days
  Days to 1000 mm^3: 27 days
  T/C: 57.6%
  TGD500, Days (vs. vehicle): 5 days
  TGD1000, Days (vs. vehicle): 7 days
  TGI: 42.4%
[3]; in mm³
  Tn (tumor volume on Day n): 681.36

## COc1cccc2c1C(=O)c1c(O)c3c(c(O)c1C2=O)C[C@@](O)(C(=O)CO)C[C@@H]3O[C@H]1C[C@H](N)[C@H](O)[C@H](C)O1 [Dox, doxorubicin, reference compound]
Calu6 NSCLC
  Days to 500 mm^3: 27 days
  Days to 1000 mm^3: 35 days
  T/C: 67.7%
  TGD500, Days (vs. vehicle): 9 days
  TGD1000, Days (vs. vehicle): 4 days
  TGI: 32.3%
  Tn (tumor volume on Day n): 773.97
[4]
  Days to 500 mm^3: 24 days
  T/C: 5.1%
  TGD500, Days (vs. vehicle): 12 days
  TGI: 94.9%
  Tn (tumor volume on Day n): 154.79

## O=c1[nH]cc(F)c(=O)[nH]1 [Formulation 5-FU, 5-fluorouracil, reference compound]
HT29 colon cancer
  Days to 500 mm^3: 31 days
  Days to 1000 mm^3: 43 days
  T/C: 43.1%
  TGD500, Days (vs. vehicle): 9 days
  TGD1000, Days (vs. vehicle): 11 days
  TGI: 56.9%
  Tn (tumor volume on Day n): 514.11

## Nc1nc2[nH]cc(CCc3ccc(C(=O)N[C@@H](CCC(=O)O)C(=O)O)cc3)c2c(=O)[nH]1 [PMX, pemetrexed, reference compound]
H460 NSCLC cells
  Days to 500 mm^3: 14 days
  Days to 1000 mm^3: 24 days
  T/C: 72.4%
  TGD500, Days (vs. vehicle): 2 days
  TGD1000, Days (vs. vehicle): 3 days
  TGI: 27.6%
  Tn (tumor volume on Day n): 817.45
H460 NSCLC [5]
  Days to 500 mm^3: 19 days
  Days to 1000 mm^3: 29 days
  T/C: 70.2%
  TGD500, Days (vs. vehicle): 5 days
  TGD1000, Days (vs. vehicle): 5 days
  TGI: 29.8%
  Tn (tumor volume on Day n): 850.21

## CS(=O)(=O)OCCN(CCBr)c1c(C(=O)NCCOP(=O)(O)O)cc([N+](=O)[O-])cc1[N+](=O)[O-] [PR104]
[6]
  Maximum tolerated dose (MTD) and recommended dose: 1,100 mg/m^2

## CC(=O)O[C@H]1C(=O)[C@@]2(C)[C@H]([C@H](OC(=O)c3ccccc3)[C@]3(O)C[C@H](OC(=O)[C@H](O)[C@@H](NC(=O)c4ccccc4)c4ccccc4)C(C)=C1C3(C)C)[C@]1(OC(C)=O)CO[C@@H]1C[C@@H]2O [Taxol, paclitaxel, reference compound]
[7]
  Primary tumor growth during the treatment period: significantly inhibited primary tumor growth
